This assay has as its system strain BIF-1. The experiment in a line: Antibiotic resistance profile (minimum inhibitory concentration). Type of assay: cell-based, Bifidobacterium animalis subsp. lactis. As for the experimental part: Specifically, the production of unwanted metabolites was evaluated: lactic acid isomer production (Table 9), bile-salt deconjugation (Table 10) and biogenic amine production (Table 11), and the antibiotic resistance profile (Table 12).

[1] abbreviates: Bifidobacterium animalis, BIF1; read-out: CMI (minimum inhibitory concentration of antibiotics).

In brackets after ≈: the same amount, converted by molar mass. Where two headings read alike, the source gives them in different places.

As for `CN(C)[C@@H]1C(O)=C(C(N)=O)C(=O)[C@@]2(O)C(O)=C3C(=O)c4c(O)cccc4[C@@](C)(O)[C@H]3C[C@@H]12` [Tetracycline], the MIC under setting [1] turned out to be 8 µg/mL (≈ 18 µM).

On to `NC[C@H]1O[C@H](O[C@H]2[C@H](O)[C@@H](O[C@H]3O[C@H](CO)[C@@H](O)[C@H](N)[C@H]3O)[C@H](N)C[C@@H]2N)[C@H](O)[C@@H](O)[C@@H]1O` [Kanamycin], for which the MIC under setting [1] is 128 µg/mL (≈ 264 µM).

With `CN[C@H](CC(C)C)C(=O)N[C@H]1C(=O)N[C@@H](CC(N)=O)C(=O)N[C@H]2C(=O)N[C@H]3C(=O)N[C@H](C(=O)N[C@H](C(=O)O)c4cc(O)cc(O)c4-c4cc3ccc4O)[C@H](O)c3ccc(c(Cl)c3)Oc3cc2cc(c3O[C@@H]2O[C@H](CO)[C@@H](O)[C@H](O)[C@H]2O[C@H]2C[C@](C)(N)[C@H](O)[C@H](C)O2)Oc2ccc(cc2Cl)[C@H]1O` [Vancomycin], the MIC (Bifidobacterium animalis, BIF1, read-out: CMI (minimum inhibitory concentration of antibiotics)) was found to be 1 µg/mL (≈ 0.69 µM).

Regarding `O=C(N[C@H](CO)[C@H](O)c1ccc([N+](=O)[O-])cc1)C(Cl)Cl` [Chloramphenicol], the MIC under setting [1] was 4 µg/mL (≈ 12.4 µM).

`CC1(C)S[C@@H]2[C@H](NC(=O)[C@H](N)c3ccccc3)C(=O)N2[C@H]1C(=O)O` [Ampicillin]: under setting [1], the MIC turned out to be 2 µg/mL (≈ 5.72 µM).

As to `[H]/N=C(/N)N[C@H]1[C@H](O)[C@@H](O)[C@H](O[C@@H]2O[C@@H](C)[C@](O)(C=O)[C@H]2O[C@@H]2O[C@@H](CO)[C@H](O)[C@@H](O)[C@@H]2NC)[C@@H](N/C(N)=N\[H])[C@@H]1O` [Streptomycin], the MIC under setting [1] was 128 µg/mL (≈ 220 µM).

As for Gentamicin, the “CMI (minimum inhibitory concentration of antibiotics)” value (obtained for strain BIF-1) came out at 64 µg/mL.

In the case of `CC[C@H]1OC(=O)[C@H](C)[C@@H](O[C@H]2C[C@@](C)(OC)[C@@H](O)[C@H](C)O2)[C@H](C)[C@@H](O[C@@H]2O[C@H](C)C[C@H](N(C)C)[C@H]2O)[C@](C)(O)C[C@@H](C)C(=O)[C@H](C)[C@@H](O)[C@]1(C)O` [Erythromycin], the MIC under setting [1] was determined as 0.5 µg/mL (≈ 0.681 µM).

The values are drawn from patent US10946051B2, “Strain of Bifidobacterium animalis subsp. lactis CECT 8145 and use thereof for the treatment and/or prevention of excess weight and obesity and associated diseases” (priority 2013, dated 2021).
